Experimental data taken from patent publication US5830911A, “Pyranoindole and tetrahydrocarbazole inhibitors of COX-2” (American Home Products Corporation, priority 1997, dated 1998).

Legend:
rhCOX-2 = target: T1, rhCOX-2 (Homo sapiens, UniProt P35354); test: Inhibition of recombinant human COX-2 (PGH2 converted to PGF2α, EIA); format: biochemical; conditions: for IC50: human recombinant COX-2, 30 min preincubation, 37° C.
T1 construct: made in house; microsomal preparation
T1 sequence (P35354 18-604): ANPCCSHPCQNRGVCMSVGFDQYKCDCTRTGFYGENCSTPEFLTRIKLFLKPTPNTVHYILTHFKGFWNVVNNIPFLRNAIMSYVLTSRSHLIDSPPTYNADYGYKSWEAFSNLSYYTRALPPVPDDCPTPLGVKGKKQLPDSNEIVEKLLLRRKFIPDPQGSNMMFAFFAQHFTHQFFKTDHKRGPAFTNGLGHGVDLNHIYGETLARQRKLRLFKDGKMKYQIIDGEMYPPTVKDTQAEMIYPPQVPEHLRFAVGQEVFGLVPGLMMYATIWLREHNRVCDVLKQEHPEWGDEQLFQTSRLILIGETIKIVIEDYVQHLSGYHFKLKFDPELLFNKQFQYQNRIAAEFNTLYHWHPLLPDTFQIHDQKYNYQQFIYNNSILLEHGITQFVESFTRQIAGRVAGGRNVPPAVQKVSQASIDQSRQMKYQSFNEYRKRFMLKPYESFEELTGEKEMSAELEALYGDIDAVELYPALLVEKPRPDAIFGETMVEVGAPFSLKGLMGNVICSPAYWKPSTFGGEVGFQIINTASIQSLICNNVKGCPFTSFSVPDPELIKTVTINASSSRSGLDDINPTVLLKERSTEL
Protocol: (§1) Representative compounds of this invention were evaluated for inhibition of COX-2 and COX-1 enzymes as follows. Human COX-1 and COX-2 cDNAs were cloned from human monocytes, untreated and LPS-treated respectively, by RT-PCR using oligonucleotide primers based on published hCOX-1 and hCOX-2 sequences (Jones et al., J. Biol. Chem., 268, 9049 (1993)). The cDNAs were then transfected into either Sf9 or CHO cells and subsequently converted into a microsomal preparation as described by Glaser et al (Eur. J. Pharmacol. 281, 107-111 (1995)). The microsomal human recombinant enzymes were diluted with buffer (100 mM Tris, pH 7.8 at 37° C.) containing 0.5 mM phenol ([…] total volume). The enzyme preparations were preincubated with vehicle (DMSO) or compounds in DMSO (1 % DMSO in final assay) for 30 min at 37° C. Excess hematin was added 1 min prior to initiation of reaction (1.25 mM final hematin) with 30 mM arachidonic acid (sodium salt). Final assay volume was 1.0 ml (100 mM Tris (pH 7.8), 0.5 mM phenol, 1.25 mM hematin and 30 mM arachidonic acid at 37° C.).
The reaction was incubated for 35 sec (maximum level of PGH2 accumulation as determined from time course studies), and terminated by addition of […] of SnCl2 (1 mg/ml) in 0.1N HCl. PGH2 is quantitatively converted to PGF2a by this reaction (50% efficiency of total conversion). The pH of each tube is adjusted to pH 3.0-3.5 with 0.1N--NaOH and extracted twice with 1.5 ml of ethyl acetate (75-90% efficiency per extraction). Combined ethyl acetate extracts were dried under N2 (g) and redissolved in EIA buffer (2.0 ml), and PGF2α ( was quantified by EIA.

purified ovine COX-1 = target: T2, purified ovine COX-1 (Ovis aries, UniProt P05979); test: Inhibition of purified ovine COX-1 (PGH2 converted to PGF2α, EIA); format: biochemical; conditions: for inhibition at 90 µM / inhibition at 30 µM / inhibition at 270 µM / inhibition at 10 µM: read-out: % inh of pur. bovine COX-1
T2 construct: purchased Cayman Chemicals (Ann Arbor, Mich.)
T2 sequence (P05979 25-600): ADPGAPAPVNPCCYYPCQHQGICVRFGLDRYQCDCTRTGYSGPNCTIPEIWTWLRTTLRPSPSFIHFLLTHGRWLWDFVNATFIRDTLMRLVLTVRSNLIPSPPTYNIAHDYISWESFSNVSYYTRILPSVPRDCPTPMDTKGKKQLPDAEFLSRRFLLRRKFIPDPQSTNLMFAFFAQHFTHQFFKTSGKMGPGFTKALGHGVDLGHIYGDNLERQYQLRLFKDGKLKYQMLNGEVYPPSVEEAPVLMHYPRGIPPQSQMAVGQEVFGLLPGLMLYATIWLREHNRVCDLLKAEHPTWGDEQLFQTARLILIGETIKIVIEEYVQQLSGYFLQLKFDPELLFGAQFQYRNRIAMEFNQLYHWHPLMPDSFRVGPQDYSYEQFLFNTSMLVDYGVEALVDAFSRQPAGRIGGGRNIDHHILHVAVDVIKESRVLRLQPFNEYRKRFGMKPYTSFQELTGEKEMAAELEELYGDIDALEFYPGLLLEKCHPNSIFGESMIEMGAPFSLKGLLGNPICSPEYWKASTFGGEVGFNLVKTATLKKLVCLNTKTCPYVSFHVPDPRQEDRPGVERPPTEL
Protocol: [The source words this procedure for another species and reports this species under the same test.] as §1, with “C.). The reaction was incubated for 35 sec (maximum level of PGH2 accumulation as determined from time course studies), and terminated by addition of […] of SnCl2 (1 mg/ml) in 0.1N HCl. PGH2 is quantitatively converted to PGF2a by this reaction (50% efficiency of total conversion). The pH of each tube is adjusted to pH 3.0-3.5 with 0.1N--NaOH and extracted twice with 1.5 ml of ethyl acetate (75-90% efficiency per extraction).” for “C.).”

[1] = Rogers et al., Neurology 43, 1609-1611 (1993); cited from earlier work
COX-2 = conditions: literature; cited from earlier work
[2] = Futaki et al., Gen. Pharmac. 24, 105-110, 1993; cited from earlier work
[3] = Futaki et al., Gen. Pharmac. 24, 105-110, 1993; cited from earlier work; remark: listed apart in the source

CCCC1(CC(=O)O)OCCc2c1[nH]c1c(F)ccc(C#N)c21 (centres unmarked) [Example 1, 5-Cyano-8-fluoro-1-propyl-1,3,4,9-tetrahydropyrano[3,4-b]indole-1-acetic acid]
IC50 (rhCOX-2): 1 µM

CCCC1(CC(=O)O)OCCc2c1[nH]c1c(C)ccc(C#N)c21 (centres unmarked) [Example 2, 5-Cyano-8-methyl-1-propyl-1,3,4,9-tetrahydropyrano[3,4-b]indole-1-acetic acid]
inhibition at 90 µM (purified ovine COX-1): 86% | inhibition at 3 µM (rhCOX-2; at 3 μM, read-out: % inh of rhCOX-2): 38%

CCC1(CC(=O)O)OCCc2c1[nH]c1cccc(C#N)c21 (centres unmarked) [Example 3, 5-Cyano-1-ethyl-1,3,4,9-tetrahydropyrano[3,4-b]indole-1-acetic acid]
inhibition at 30 µM (purified ovine COX-1): 47% | inhibition at 270 µM (purified ovine COX-1): 31% | IC50 (rhCOX-2): 0.57 µM

CCCC1(CC(=O)O)OCCc2c1[nH]c1cccc(C#N)c21 (centres unmarked) [Example 4, 5-Cyano-1-propyl-1,3,4,9-tetrahydropyrano[3,4-b]indole-1-acetic acid]
IC50 (purified ovine COX-1; purified ovine COX-1, 30 min preincubation, 37° C.): > 1000 µM | IC50 (rhCOX-2): 1.7 µM

C=CCC1(CC(=O)O)CCCc2c1[nH]c1c(F)ccc(C#N)c21 (centres unmarked) [Example 5, 1-Allyl-5-cyano-8-fluoro-2,3,4,9-tetrahydro-1H-carbazole-1-acetic acid]
inhibition at 10 µM (purified ovine COX-1): 93% | IC50 (rhCOX-2): 0.1 µM

CCCC1(CC(=O)O)CCCc2c1[nH]c1c(F)ccc(C#N)c21 (centres unmarked) [Example 6, 5-Cyano-8-fluoro-1-propyl-2,3,4,9-tetrahydro-1H-carbazole-1-acetic acid]
inhibition at 10 µM (purified ovine COX-1): 73% | IC50 (rhCOX-2): 0.32 µM

C=CCC1(CC(=O)O)CCCc2c1[nH]c1c(C)ccc(C#N)c21 (centres unmarked) [Example 7, 1-Allyl-5-cyano-8-methyl-2,3,4,9-tetrahydro-1H-carbazole-1-acetic acid]
inhibition at 30 µM (purified ovine COX-1): 99% | inhibition at 0.3 µM (rhCOX-2; at 0.3 μM, read-out: % inh of rhCOX-2): 75%

CCCC1(CC(=O)O)CCCc2c1[nH]c1c(C)ccc(C#N)c21 (centres unmarked) [Example 8, 5-Cyano-1-propyl-8-methyl-2,3,4,9-tetrahydro-1H-carbazole-1-acetic acid]
inhibition at 270 µM (purified ovine COX-1): 99% | inhibition at 1 µM (rhCOX-2; read-out: % inh of rhCOX-2): 44%

CCCC1(CC(=O)O)CCCc2c1[nH]c1c(C(N)=O)ccc(C#N)c21 (centres unmarked) [Example 9, 8-Carboxamido-5-cyano-1-propyl-2,3,4,9-tetrahydro-1H-carbazole-1-acetic acid]
inhibition at 90 µM (purified ovine COX-1): -37% | inhibition at 0.1 µM (rhCOX-2; read-out: % inh of rhCOX-2): 21%

CCCC1(CC(=O)O)CCCc2c1[nH]c1cccc(C#N)c21 (centres unmarked) [Example 10, 5-Cyano-1-propyl-2,3,4,9-tetrahydro-1H-carbazole-1-acetic acid]
inhibition at 90 µM (purified ovine COX-1): 74% | inhibition at 0.1 µM (rhCOX-2; read-out: % inh of rhCOX-2): 18%

C=CCC1(CC(=O)O)CCCc2c1[nH]c1c(C#N)ccc(C#N)c21 (centres unmarked) [Example 11, 1-Allyl-5,8-dicyano-2,3,4,9-tetrahydro-1H-carbazole-1-acetic acid]
inhibition at 270 µM (purified ovine COX-1): 86% | inhibition at 1 µM (rhCOX-2; read-out: % inh of rhCOX-2): 91%

CCCC1(CC(=O)O)CCCc2c1[nH]c1c(C#N)ccc(C#N)c21 (centres unmarked) [Example 12, 5,8-Dicyano-1-propyl-2,3,4,9-tetrahydro-1H-carbazole-1-acetic acid]
inhibition at 270 µM (purified ovine COX-1): 98% | inhibition at 1 µM (rhCOX-2; read-out: % inh of rhCOX-2): 78%

CCCC1(CC(=O)O)CCCc2c1[nH]c1cc(C#N)ccc21 (centres unmarked) [Example 13, 7-Cyano-1-propyl-2,3,4,9-tetrahydro-1H-carbazole-1-acetic acid]
inhibition at 90 µM (purified ovine COX-1): 100% | inhibition at 0.1 µM (rhCOX-2; read-out: % inh of rhCOX-2): 31%

COc1ccc2c(c1)c(CC(=O)O)c(C)n2C(=O)c1ccc(Cl)cc1 [Indomethacin]
treatment of Alzheimer's disease [1]: useful in the treatment of Alzheimer's disease | selectivity for inhibition of COX-2 (COX-2): relatively non-selective inhibitor of COX-1 and COX-2

CS(=O)(=O)Nc1ccc([N+](=O)[O-])cc1OC1CCCCC1 [N-(2-cyclohexyloxy-4-nitrophenyl)methanesulfonamide]
gastric side effects [2]: lacks gastric side effects | selectivity for inhibition of COX-2 (COX-2): selective COX-2 inhibitor | antiinflammatory effect [3]: effective antiinflammatory

CCc1cccc2c3c([nH]c12)C(CC)(CC(=O)O)OCC3 (centres unmarked) [etodolac]
selectivity for inhibition of COX-2 (COX-2): tenfold
